Laboratory results: paper PMC7525662, “Preclinical dosimetry models and the prediction of clinical doses of novel positron emission tomography radiotracers” (Scientific Reports, 2020)

Experiments:
[1] = Whole-body PET biodistribution in rats; type: in vivo, Sprague–Dawley rats; details: PET images, i.v. bolus, 240 min
Method: On the day of imaging, rats were anaesthetised with 2‒2.5% isoflurane (50/50 oxygen/nitrous oxide, 1 L/min), then transferred to the preclinical PET/CT scanner (nanoPET/CT, Mediso, Hungary) and placed in a supine position. A CT scan (semi-circular full trajectory, maximum field of view, 480 projections, 50 kVp, 300 ms and 1:4 binning) was acquired for attenuation correction.
Immediately after radiotracer administration, a 240 min emission scan using 4 beds (50% overlap) was obtained using 3-dimensional 1:5 mode and re-binned as follows: 7 × 1 min, 2 × 5 min and 4 × 10 min. Throughout the PET/CT scanning session, animal temperature and respiration rate were monitored and controlled.
PET studies were reconstructed using filtered-back projection (FBP) and Mediso’s iterative Tera-Tomo 3D reconstruction algorithm with the following settings: 4 iterations, 6 subsets, full detector model, normal regularization, spike filter on, voxel size 0.4 mm and 400‒600 keV energy window. PET data were corrected for randoms, scatter and attenuation.
Reconstructed whole-body PET/CT images were imported into PMOD 3.8 software (PMOD Technologies, Switzerland) and static regions-of-interest (ROIs) were selected in approximately every third axial slice of source organs in animal subjects, which included the kidneys (left and right), urinary bladder, lungs (right and left), heart, brain, liver and intestine. […]

[2] = Residence times in rat source organs from whole-body PET, FBP reconstruction; design: species or system Sprague–Dawley rats; details: in vivo, iv
Method: Immediately after radiotracer administration, a 240 min emission scan using 4 beds (50% overlap) was obtained using 3-dimensional 1:5 mode and re-binned as follows: 7 × 1 min, 2 × 5 min and 4 × 10 min. Throughout the PET/CT scanning session, animal temperature and respiration rate were monitored and controlled. PET studies were reconstructed using filtered-back projection (FBP) and Mediso’s iterative Tera-Tomo 3D reconstruction algorithm with the following settings: 4 iterations, 6 subsets, full detector model, normal regularization, spike filter on, voxel size 0.4 mm and 400‒600 keV energy window. PET data were corrected for randoms, scatter and attenuation. […] Then, PMOD’s contours interpolation tool was used to interpolate ROIs for each organ into a corresponding volume-of-interest (VOI). A static cuboidal VOI was also drawn to include the animal whole-body. Time-activity curves for each source organ, whole-body and remainder of the body were plotted. […] Residence times (τ) were determined for each radiotracer in source organs, whole-body and remaining (any activity assigned to the whole-body but not assigned to a source organ). Each preclinical source organ’s τ was determined by calculating the area under its respective time-activity curve (activity normalised to the percentage maximum injected dose as a function of time) using the trapezoid method. […] From each individual animal, eight dosimetry models were constructed from all possible combinations of image reconstruction method (FBP or iterative), τ (non-normalised or normalised to human organ masses), and sex of phantom (male or female).

| Molecule | organs with highest uptake [1] | Residence Time (h), Average: Brain [2] [h] | Residence Time (h), Average: Heart [2] [h] | Residence Time (h), Average: Intestine [2] [h] | Residence Time (h), Average: Kidneys [2] [h] | Residence Time (h), Average: Liver [2] [h] | Residence Time (h), Average: Lungs [2] [h] | Residence Time (h), Average: Remaining [2] [h] | Residence Time (h), Average: Urinary Bladder [2] [h] |
| --- | --- | --- | --- | --- | --- | --- | --- | --- | --- |
| O=C[C@H]([18F])[C@@H](O)[C@H](O)[C@H](O)CO [FDG, 2-deoxy-2-[^18F]fluoro-D-glucose] | brain, heart, kidneys and urinary bladder | 0.0124 | 0.0158 | 0.372 | 0.0215 | 0.0249 | 0.0155 | 2.1 | 0.65 |
| NOTA-RGDfK [existing Al^18F-labelled NOTA-RGDfK peptide PET radiotracer; precursor NOTA-RGDfK (1)] | – | 0.00193 | 0.00279 | 0.209 | 0.029 | 0.0207 | 0.00664 | 1.96 | 0.892 |
